This is an account of results in patent US10202339B2, “Therapeutic compounds and compositions” (AGIOS PHARMACEUTICALS, INC., priority 2012, dated 2019).

The target of the assay is IDH2 R140Q (Homo sapiens (Human), UniProt P48735, R140Q). The experiment in a line: IDH2 R140Q enzymatic cofactor depletion assay (diaphorase/resazurin). The format is biochemical. To be noted: IDH2 R140Q enzyme, one hour preincubation with compound, one hour reaction; read-out: Enz R140Q. On the procedure: The reaction was terminated by the addition of a second enzyme, diaphorase, and a corresponding substrate, resazurin. Diaphorase reduces resazurin to the highly fluorescent resorufin with the concomitant oxidation of NADPH to NADP, both halting the IDH2 reaction by depleting the available cofactor pool and facilitating quantitation of the amount of cofactor remaining after a specific time period through quantitative production of an easily detected fluorophore.
IDH2 R140Q, sequence (P48735 40-452 R140Q): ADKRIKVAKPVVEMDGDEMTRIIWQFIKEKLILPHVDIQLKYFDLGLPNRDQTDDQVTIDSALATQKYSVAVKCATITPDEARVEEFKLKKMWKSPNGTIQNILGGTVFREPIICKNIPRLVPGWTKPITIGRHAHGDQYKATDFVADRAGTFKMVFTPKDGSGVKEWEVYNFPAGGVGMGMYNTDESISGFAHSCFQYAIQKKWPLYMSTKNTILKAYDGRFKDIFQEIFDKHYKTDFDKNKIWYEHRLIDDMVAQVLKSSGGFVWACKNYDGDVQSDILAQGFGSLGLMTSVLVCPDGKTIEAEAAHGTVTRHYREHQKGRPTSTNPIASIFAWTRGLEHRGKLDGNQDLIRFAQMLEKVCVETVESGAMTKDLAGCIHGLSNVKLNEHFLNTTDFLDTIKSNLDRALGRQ
The compound was then incubated for one hour at room temperature with the enzyme; before starting the IDH2 reaction with the addition of 10 μl of substrate mix containing 50 μM NADPH and 6.3 mM α-KG in the buffer described above. After a further one hour of incubation at room temperature, the reaction was halted and the remaining NADPH measured through conversion of resazurin to resorufin by the addition of 25 μl Stop Mix (36 μg/ml diaphorase enzyme and 60 μM resazurin; in buffer). After one minute of incubation the plate was read on a plate reader at Ex544/Em590.
(In general: Resazurin is reduced to fluorescent resorufin, in cell work by metabolically active cells.)
With “2-(3-(1-methyl-1H-pyrazol-5-yl)ureido)-N-(2,2,2-trifluoroethyl)-[1,1′-biphenyl]-4-sulfonamide [Compound 77]”, the IC50 fell in the range of 0.1 to 1 µM.
Under “3′-methyl-N-morpholino-2-(3-(3-(trifluoromethyl)phenyl)ureido)-[1,1′-biphenyl]-4-sulfonamide [Compound 49]” stands 0.1 to 1 µM; under `O=C(Nc1ccccc1)Nc1cc(S(=O)(=O)Nc2ccccc2)ccc1-c1ccsc1` [Compound 1, N-phenyl-3-(3-phenylureido)-4-(thiophen-3-yl)benzenesulfonamide], 0.1 to 1 µM; under `Cc1ccccc1NC(=O)Nc1cc(S(=O)(=O)Nc2ccccc2)ccc1-c1ccsc1` [Compound 2, N-phenyl-4-(thiophen-3-yl)-3-(3-(o-tolyl)ureido)benzenesulfonamide], 0.1 to 1 µM.
Under `Cc1cccc(NC(=O)Nc2cc(S(=O)(=O)Nc3ccccc3)ccc2-c2ccsc2)c1` [Compound 3, N-phenyl-4-(thiophen-3-yl)-3-(3-(m-tolyl)ureido)benzenesulfonamide] stands 0.1 to 1 µM; under `CCc1ccccc1NC(=O)Nc1cc(S(=O)(=O)Nc2ccccc2)ccc1-c1ccsc1` [Compound 4, 3-(3-(2-ethylphenyl)ureido)-N-phenyl-4-(thiophen-3-yl)benzenesulfonamide], 0.1 to 1 µM; under `CCc1cccc(NC(=O)Nc2cc(S(=O)(=O)Nc3ccccc3)ccc2-c2ccsc2)c1` [Compound 5, 3-(3-(3-ethylphenyl)ureido)-N-phenyl-4-(thiophen-3-yl)benzenesulfonamide], 0.1 to 1 µM.
Under `COc1ccccc1NC(=O)Nc1cc(S(=O)(=O)Nc2ccccc2)ccc1-c1ccsc1` [Compound 6, 3-(3-(2-methoxyphenyl)ureido)-N-phenyl-4-(thiophen-3-yl)benzenesulfonamide] stands 0.1 to 1 µM; under `COc1cccc(NC(=O)Nc2cc(S(=O)(=O)Nc3ccccc3)ccc2-c2ccsc2)c1` [Compound 7, 3-(3-(3-methoxyphenyl)ureido)-N-phenyl-4-(thiophen-3-yl)benzenesulfonamide], 0.1 to 1 µM; under `O=C(Nc1cccc(Cl)c1)Nc1cc(S(=O)(=O)Nc2ccccc2)ccc1-c1ccsc1` [Compound 8, 3-(3-(3-chlorophenyl)ureido)-N-phenyl-4-(thiophen-3-yl)benzenesulfonamide], 0.1 to 1 µM.
As for `O=C(Nc1ccccc1F)Nc1cc(S(=O)(=O)Nc2ccccc2)ccc1-c1ccsc1` [Compound 9, 3-(3-(2-fluorophenyl)ureido)-N-phenyl-4-(thiophen-3-yl)benzenesulfonamide], the IC50 was 0.1 to 1 µM.
On to `O=C(Nc1cc(S(=O)(=O)Nc2ccccc2)ccc1-c1ccsc1)Nc1ccccc1C(F)(F)F` [Compound 10, N-phenyl-4-(thiophen-3-yl)-3-(3-(2-(trifluoromethyl)phenyl)ureido)benzenesulfonamide], for which the IC50 was 0.1 to 1 µM.
As to `Cc1ccc(C)c(NC(=O)Nc2cc(S(=O)(=O)Nc3ccccc3)ccc2-c2ccsc2)c1` [Compound 11, 3-(3-(2,5-dimethylphenyl)ureido)-N-phenyl-4-(thiophen-3-yl)benzenesulfonamide], the IC50 lay within 0.1 to 1 µM.
Consider `Cc1ccc(F)c(NC(=O)Nc2cc(S(=O)(=O)Nc3ccccc3)ccc2-c2ccsc2)c1` [Compound 12, 3-(3-(2-fluoro-5-methylphenyl)ureido)-N-phenyl-4-(thiophen-3-yl)benzenesulfonamide], for which the IC50 lay in the range of 0.1 to 1 µM.
In the case of `O=C(Nc1ccccc1O)Nc1cc(S(=O)(=O)Nc2ccccc2)ccc1-c1ccsc1` [Compound 13], the IC50 was in the range of 1 to 10 µM.
On to `CC(C)c1cccc(NC(=O)Nc2cc(S(=O)(=O)Nc3ccccc3)ccc2-c2ccsc2)c1` [Compound 14], for which the IC50 lay in the range of 1 to 10 µM.
On to `Cc1cccc(C)c1NC(=O)Nc1cc(S(=O)(=O)Nc2ccccc2)ccc1-c1ccsc1` [Compound 15], for which the IC50 lay within 1 to 10 µM.
Take `Cc1cc(C)cc(NC(=O)Nc2cc(S(=O)(=O)Nc3ccccc3)ccc2-c2ccsc2)c1` [Compound 16]: the IC50 was 1 to 10 µM.
In the case of `Cc1ccc(NC(=O)Nc2cc(S(=O)(=O)Nc3ccccc3)ccc2-c2ccsc2)cc1C` [Compound 17], the IC50 lay in the range of 1 to 10 µM.
For `O=C(Nc1ccc(F)cc1)Nc1cc(S(=O)(=O)Nc2ccccc2)ccc1-c1ccsc1` [Compound 18], the IC50 fell in the range of 1 to 10 µM.
For `O=C(Nc1ccc(F)c(Cl)c1)Nc1cc(S(=O)(=O)Nc2ccccc2)ccc1-c1ccsc1` [Compound 19], the IC50 is 1 to 10 µM.
Under `O=C(Nc1ccc(F)c(F)c1)Nc1cc(S(=O)(=O)Nc2ccccc2)ccc1-c1ccsc1` [Compound 20] stands 1 to 10 µM; under `O=C(Nc1ccc(F)c(C(F)(F)F)c1)Nc1cc(S(=O)(=O)Nc2ccccc2)ccc1-c1ccsc1` [Compound 21], 1 to 10 µM.
As to `O=C(Nc1ccccn1)Nc1cc(S(=O)(=O)Nc2ccccc2)ccc1-c1ccsc1` [Compound 22], the IC50 is 1 to 10 µM.
Under `O=C(Nc1ncco1)Nc1cc(S(=O)(=O)Nc2ccccc2)ccc1-c1ccsc1` [Compound 23] stands 1 to 10 µM; under `CC1CCC(NC(=O)Nc2cc(S(=O)(=O)Nc3ccccc3)ccc2-c2ccsc2)CC1` (stereo not drawn) [Compound 24], 1 to 10 µM.
Under `O=C(Nc1ccccc1Cl)Nc1cc(S(=O)(=O)NC2CC2)ccc1-c1ccsc1` [Compound 25, 3-(3-(2-chlorophenyl)ureido)-N-cyclopropyl-4-(thiophen-3-yl)benzenesulfonamide] stands 0.1 to 1 µM; under `O=C(Nc1cc(Cl)cc(Cl)c1)Nc1cc(S(=O)(=O)NC2CC2)ccc1-c1ccsc1` [Compound 26], 1 to 10 µM; under `O=C(Nc1cc(S(=O)(=O)NC2CC2)ccc1-c1ccsc1)Nc1cccc(Cl)c1Cl` [Compound 27, N-cyclopropyl-3-(3-(2,3-dichlorophenyl)ureido)-4-(thiophen-3-yl)benzenesulfonamide], 0.1 to 1 µM.
Regarding `O=C(Nc1cc(S(=O)(=O)NC2CC2)ccc1-c1ccsc1)Nc1ccc(F)cc1C(F)(F)F` [Compound 28, N-cyclopropyl-3-(3-(4-fluoro-2-(trifluoromethyl)phenyl)ureido)-4-(thiophen-3-yl)benzenesulfonamide], the IC50 lay within 0.1 to 1 µM.
Under `Cc1cncc(NC(=O)Nc2cc(S(=O)(=O)NC3CC3)ccc2-c2ccsc2)c1` [Compound 29, N-cyclopropyl-3-(3-(5-methylpyridin-3-yl)ureido)-4-(thiophen-3-yl)benzenesulfonamide] stands 1 to 10 µM; under `N#CC1(NS(=O)(=O)c2ccc(-c3ccsc3)c(NC(=O)Nc3cccc(C(F)(F)F)c3)c2)CC1` [Compound 31, N-(1-cyanocyclopropyl)-4-(thiophen-3-yl)-3-(3-(3-(trifluoromethyl)phenyl)ureido)benzenesulfonamide], less than 0.1 µM.
Under `O=C(Nc1cccc(C(F)(F)F)c1)Nc1cc(S(=O)(=O)NC2COC2)ccc1-c1ccsc1` [Compound 32, N-(oxetan-3-yl)-4-(thiophen-3-yl)-3-(3-(3-(trifluoromethyl)phenyl)ureido)benzenesulfonamide] stands less than 0.1 µM; under `O=C(Nc1ccccc1F)Nc1cc(S(=O)(=O)NCC(F)(F)F)ccc1-c1ccccc1` [Compound 33, 2-(3-(2-fluorophenyl)ureido)-N-(2,2,2-trifluoroethyl)-[1,1′-biphenyl]-4-sulfonamide], 0.1 to 1 µM.
For `O=C(Nc1ccccc1)Nc1cc(S(=O)(=O)NC2CC2)ccc1-c1ccccc1` [Compound 34, N-cyclopropyl-2-(3-phenylureido)-[1,1′-biphenyl]-4-sulfonamide], the IC50 was in the range of 0.1 to 1 µM.
Under `O=C(Nc1ccccc1F)Nc1cc(S(=O)(=O)NC2CC2)ccc1-c1ccccc1` [Compound 35, N-cyclopropyl-2-(3-(2-fluorophenyl)ureido)-[1,1′-biphenyl]-4-sulfonamide] stands 0.1 to 1 µM; under `O=C(Nc1cccc(C(F)(F)F)c1)Nc1cc(S(=O)(=O)NC2CC2)ccc1-c1ccccc1` [Compound 36, N-cyclopropyl-2-(3-(3-(trifluoromethyl)phenyl)ureido)-[1,1′-biphenyl]-4-sulfonamide], 0.1 to 1 µM.
On to `O=C(Nc1ccc(Cl)cc1)Nc1cc(S(=O)(=O)NCC(F)(F)F)ccc1-c1ccccc1` [Compound 37, 2-(3-(4-chlorophenyl)ureido)-N-(2,2,2-trifluoroethyl)-[1,1′-biphenyl]-4-sulfonamide], for which the IC50 is 0.1 to 1 µM.
Turning to `O=C(Nc1cc(F)ccc1F)Nc1cc(S(=O)(=O)NCC(F)(F)F)ccc1-c1ccccc1` [Compound 38, 2-(3-(2,5-difluorophenyl)ureido)-N-(2,2,2-trifluoroethyl)-[1,1′-biphenyl]-4-sulfonamide], the IC50 is 0.1 to 1 µM.
Regarding `O=C(Nc1ccc(F)cc1)Nc1cc(S(=O)(=O)NCC(F)(F)F)ccc1-c1ccccc1` [Compound 39, 2-(3-(4-fluorophenyl)ureido)-N-(2,2,2-trifluoroethyl)-[1,1′-biphenyl]-4-sulfonamide], the IC50 was in the range of 0.1 to 1 µM.
As to `O=C(Nc1ccc(F)c(Cl)c1)Nc1cc(S(=O)(=O)NCC(F)(F)F)ccc1-c1ccccc1` [Compound 40, 2-(3-(3-chloro-4-fluorophenyl)ureido)-N-(2,2,2-trifluoroethyl)-[1,1′-biphenyl]-4-sulfonamide], the IC50 fell in the range of 0.1 to 1 µM.
Turning to `O=C(Nc1cc(S(=O)(=O)NCC(F)(F)F)ccc1-c1ccccc1)Nc1c(F)cccc1F` [Compound 41, 2-(3-(2,6-difluorophenyl)ureido)-N-(2,2,2-trifluoroethyl)-[1,1′-biphenyl]-4-sulfonamide], the IC50 is 0.1 to 1 µM.
